{"source": "paper PMC9016807", "about": "“Metabolic, Pharmacokinetic, and Activity Profile of the Liver Stage Antimalarial (RC-12)” (ACS Omega, 2022)", "key": {"[1]": {"assay": "Pharmacokinetics in rats after IV and PO administration", "type": "in vivo, male Sprague–Dawley rats", "experimental": "Animal studies were conducted using established procedures in accordance with the Australian Code of Practice for the Care and Use of Animals for Scientific Purposes, and the study protocols were reviewed and approved by the Monash Institute of Pharmaceutical Sciences Animal Ethics Committee. The study was conducted in overnight-fasted male Sprague–Dawley rats weighing 266–292 g. Rats had access to water ad libitum throughout the pre- and postdose sampling period, and access to food was reinstated 4 h postdose. Compound 1 was administered intravenously as a 10 min constant rate infusion via an indwelling jugular vein cannula (1 mL per rat, n = 5 rats) and orally by gavage (10 mL/kg per rat, n = 2–3 rats), and samples of arterial blood and total urine were collected up to 24 h postdose. Arterial blood was collected directly into borosilicate vials (at 4 °C) containing heparin. Blood samples were centrifuged, and the supernatant plasma was removed and stored frozen (−80 °C) until analysis by LC-MS. Plasma samples and calibration standards (prepared in blank rat plasma) were processed by protein precipitation with a 2-fold volume of acetonitrile. LC-MS analysis was conducted using a Waters Micromass Quattro Premier triple-quadrupole mass spectrometer coupled to a Waters Acquity UPLC with a Phenomenex C18 Kinetex column (50 × 2.1 mm, 2.7 μm). Elution was achieved using a methanol–water gradient (containing 8.2 mM formic acid and 1.25 mM ammonium formate) with a flow rate of 0.6 mL/min, a gradient cycle time of 6 min, and an injection volume of 2 μL. MS detection was conducted using positive electrospray ionization with multiple reaction monitoring. Transitions (m/z), cone voltages (V), and CID voltages (V) were as follows: 1, 430.26 > 99.93, 40, 20; 2, 416.27 > 99.80, 30, 20; 3, 402.22 > 99.93, 35, 20; 4, 388.23 > 99.86, 35, 20; 5: 374.25 > 72.01, 35, 25; diazepam (285.25 > […], 40, 25) (used as an internal standard). The quantitation range in plasma was typically 1–10000 ng/mL, and the accuracy and precision were within ±10% and <10%, respectively, for each analyte. Urine samples were analyzed using either a 20- or 200-fold dilution with 50% acetonitrile and assayed against calibration standards prepared in the same solvent."}, "[2]": {"test_system": "P. vivax liver-stage parasites", "assay": "P. vivax liver-stage in vitro assay, radical cure mode", "type": "cell-based, Plasmodium vivax", "conditions": "20 μM, two independent runs, threshold for activity 75% inhibition", "experimental": "Compound 1 and its metabolites were tested in both prophylactic and radical cure modes for activity against P. vivax liver-stage parasites.[16],[17] In the prophylactic assay, compounds are added the day after sporozoite invasion into hepatocytes in order to characterize the compound activity against established liver forms with a parasitophorous vacuole membrane (as opposed to activity on preinvasion sporozoites) and prior to complete maturation of hypnozoites into drug-insensitive dormant forms, which appear at about 5 days postinvasion.[18] In the radical cure assay, compounds are added at day 5 postinfection to characterize activity against late-stage schizonts and mature PI4K inhibitor-insensitive hypnozoites.[19] In these experiments, the threshold for activity is 75% inhibition. […] Similarly, as previously described,[20] 10 μM concentrations of 1 and its metabolites were also tested for activity against P. cynomolgi schizont (large forms) and hypnozoite (small forms) liver-stage parasites cultured in rhesus monkey hepatocytes. In these experiments, the threshold for activity is 50% inhibition.\nCompounds were prepared as 20 mM stock solutions in DMSO and tested in an eight-point semilog (1/3) dilution series from 20 μM in 384-well assay plates in both prophylactic and radical cure mode against P. vivax liver-stage parasites as previously described.[16] Following ethical approval from the Institutional Ethics Committee of the Thai Ministry of Public Health, the Ethical Review Committee of Faculty of Tropical Medicine, Mahidol University (TMEC 11-008 and 14-016), the Oxford Tropical Medicine Ethical Committee, Oxford University, England (OxTREC 17-11 and 40–14), and the Cambodian National Ethics Committee for Health Research (101NECHR), isolates of P. vivax infected blood were collected from patent volunteers in Tak province, Thailandm and Mondulkiri province, Cambodia. Samples were collected by venipuncture into heparin tubes prior to replacement of patient serum with nonimmune AB human serum and feeding to laboratory-reared Anopheles dirus cracens or An. dirus A mosquitoes via water-jacket artificial membrane feeders or the Hemotek insect feeding system (Hemotek, Blackburn, UK) set to maintain the bloodmeal temperature at 37 °C. […] Cryopreserved human hepatocytes (BioIVT, Baltimore, Maryland, USA) were thawed into InVitroGro CP Medium (BioIVT), quantified for viability by trypan blue dye exclusion, diluted to 800–1000 live cells per microliter, and 18000 live cells were plated into each well of a collagen-coated 384-well plate (Greiner, Monroe, NC, USA) by a 16-channel pipet (Finnpipette, Thermo Fisher Scientific, Waltham, MA). […]"}, "[3]": {"conditions": "PO, 11 mg/kg, individual values n = 2"}, "[4]": {"conditions": "male, Sprague-Dawley, rat, plasma, po, 27 mg/kg"}}, "note": "Several values for one entry are separate records, joined by “and”; a condition that tells them apart may be missing. Equal entries are not always repeated. Where two headings read alike, the source gives them in different places."}
{"smiles": "CCN(CC)CCN(CCN(CC)CC)c1cc(OC)c(OC)cc1Br", "note": "[Compound 1, 4-(2-bromo-4,5-dimethoxyphenyl)-1,1,7,7-tetraethyldiethylenetriamine]", "values": [{"measurement": "dose excreted in urine as parent", "setting": "[1]; IV, 3 mg/kg, individual values", "result": "9.2% and 10.7%"}, {"measurement": "Cmax", "setting": "[1]; [3]", "result": 50, "unit": "nM"}, {"measurement": "Tmax", "setting": "[1]; [3]", "result": 0.8, "unit": "h"}, {"measurement": "plasma half-life", "setting": "[1]; [3]", "result": 6.1, "unit": "h"}, {"measurement": "half-life", "setting": "[1]; male, Sprague-Dawley, rat, plasma, intravenous and oral, after IV and PO administration, read-out: terminal half-life", "result": "5 to 7", "unit": "h"}, {"measurement": "clearance", "setting": "[1]; male, Sprague-Dawley, rat, plasma, iv, 3 mg/kg", "result": "147 ± 33", "unit": "mL/min/kg"}, {"measurement": "half-life", "setting": "[1]; male, Sprague-Dawley, rat, plasma, iv, 3 mg/kg, IV, 3 mg/kg, n = 5, read-out: plasma half-life (converted)", "result": "7 ± 1.3", "unit": "h"}, {"measurement": "Vd", "setting": "[1]; male, Sprague-Dawley, rat, plasma, iv, 3 mg/kg, read-out: plasma volume of distribution", "result": "51 ± 10", "unit": "L/kg"}, {"measurement": "bioavailability", "setting": "[1]; male, Sprague-Dawley, rat, plasma, po, 11 mg/kg", "result": "~16", "unit": "%"}, {"measurement": "Tmax", "setting": "[1]; male, Sprague-Dawley, rat, plasma, po, 11 mg/kg, PO, 11 mg/kg, individual values n = 2, read-out: Tmax", "result": 1, "unit": "h"}, {"measurement": "half-life", "setting": "[1]; male, Sprague-Dawley, rat, plasma, po, 11 mg/kg, PO, 11 mg/kg, individual values n = 2, read-out: plasma half-life (converted)", "result": 4.9, "unit": "h"}, {"measurement": "Cmax", "setting": "[1]; male, Sprague-Dawley, rat, plasma, po, 11 mg/kg, individual values n = 2", "result": 70, "unit": "nM"}, {"measurement": "Cmax", "setting": "[1]; [4]", "result": "310 ± 30", "unit": "nM"}, {"measurement": "bioavailability", "setting": "[1]; [4]", "result": "~27", "unit": "%"}, {"measurement": "half-life", "setting": "[1]; male, Sprague-Dawley, rat, plasma, po, 27 mg/kg, PO, 27 mg/kg, n = 3, read-out: plasma half-life (converted)", "result": "7.4 ± 1.3", "unit": "h"}, {"measurement": "Tmax", "setting": "[1]; male, Sprague-Dawley, rat, plasma, po, 27 mg/kg, PO, 27 mg/kg, read-out: Tmax", "result": 1, "unit": "h"}, {"measurement": "Tmax", "setting": "[1]; male, Sprague-Dawley, rat, plasma, po, oral administration, read-out: time of maximum plasma concentrations postdose", "result": "~1", "unit": "h"}, {"measurement": "blood plasma ratio", "setting": "[1]; male, Sprague-Dawley, whole blood and plasma, 3 mg/kg, rat, IV column", "result": 2.1}, {"measurement": "renal elimination as share of overall in vivo clearance", "setting": "[1]; rat", "result": "approximately 10%"}, {"measurement": "activity against schizonts or hypnozoites", "setting": "[2]", "result": "no activity"}]}
